In PubChem BioAssay AID328 (DTP/NCI, 2004):
Several values for one entry are separate records, joined by “and”; a condition that tells them apart may be missing. Equal entries are not always repeated. Inconclusive results and toxic doses are left out.

Tested on: BDF1 mice, P388 leukemia ip, median survival T/C
Assay: NCI In Vivo Anticancer Drug Screen. Data for tumor model P388 Leukemia (intraperitoneal) in B6D2F1 (BDF1) mice
Conditions: endpoint: median survival time, higher = longer survival
Procedure, shortened: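 Vehicle-dosed animals serve as the reference; survival of compound-dosed, tumour-implanted mice is divided by it.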

[1] = dose: 100.0 mg/kg/injection, schedule: Q01DX009 (ip), vehicle: saline with Tween-80
[2] = dose: 100.0 mg/kg/injection, schedule: Q04DX003 (ip), vehicle: saline with Tween-80
[3] = dose: 200.0 mg/kg/injection, schedule: Q01DX009 (ip), vehicle: saline with Tween-80
[4] = dose: 200.0 mg/kg/injection, schedule: Q04DX003 (ip), vehicle: saline with Tween-80
[5] = dose: 400.0 mg/kg/injection, schedule: Q01DX009 (ip), vehicle: saline with Tween-80
[6] = dose: 400.0 mg/kg/injection, schedule: Q04DX003 (ip), vehicle: saline with Tween-80
[7] = dose: 12.5 mg/kg/injection, schedule: Q01DX009 (ip), vehicle: saline
[8] = dose: 25.0 mg/kg/injection, schedule: Q01DX009 (ip), vehicle: saline
[9] = dose: 25.0 mg/kg/injection, schedule: Q01DX009 (ip), vehicle: saline with Tween-80
[10] = dose: 50.0 mg/kg/injection, schedule: Q01DX009 (ip), vehicle: saline with Tween-80
[11] = dose: 50.0 mg/kg/injection, schedule: Q04DX003 (ip), vehicle: saline with Tween-80
[12] = dose: 25.0 mg/kg/injection, schedule: Q04DX003 (ip), vehicle: saline with Tween-80
[13] = dose: 12.5 mg/kg/injection, schedule: Q01DX009 (ip), vehicle: saline with Tween-80
[14] = dose: 100.0 mg/kg/injection, schedule: Q01DX001 (ip), vehicle: saline with Tween-80
[15] = dose: 200.0 mg/kg/injection, schedule: Q01DX001 (ip), vehicle: saline with Tween-80
[16] = dose: 400.0 mg/kg/injection, schedule: Q01DX001 (ip), vehicle: saline with Tween-80

`CCOC(=O)C(Cc1ccc(N(CCCl)CCCl)cc1)NC(=O)C(CC(C)C)NC(C)=O` (stereo not drawn) was tested, and the T/C (dose: 5.0 mg/kg/injection, schedule: Q04DX003 (ip), vehicle: water) was 114 % of control, the T/C (dose: 10.0 mg/kg/injection, schedule: Q04DX003 (ip), vehicle: water) was 114 % of control and the T/C (dose: 40.0 mg/kg/injection, schedule: Q04DX003 (ip), vehicle: water) was 121 % of control.

For `CCc1cccc(CC)c1-n1c(C)ccc1-c1ccccc1`, the T/C (dose: 50.0 mg/kg/injection, schedule: Q01DX009 (ip), vehicle: saline + alcohol) was 106 % of control, the T/C (dose: 100.0 mg/kg/injection, schedule: Q01DX009 (ip), vehicle: saline + alcohol) was 101 % of control and the T/C (dose: 200.0 mg/kg/injection, schedule: Q01DX009 (ip), vehicle: saline + alcohol) was 106 % of control.

For `O=C(O)CN(CCN(CC(=O)O)CC(=O)O)CC(=O)O`, the T/C (dose: 25.0 mg/kg/injection, schedule: Q01DX010 (ip), vehicle: saline) was 100 % of control, the T/C (dose: 50.0 mg/kg/injection, schedule: Q01DX010 (ip), vehicle: saline) was 91 % of control and the T/C (dose: 200.0 mg/kg/injection, schedule: Q01DX010 (ip), vehicle: saline) was 95 % of control.

`CSN1C(=O)CCC1=O` was tested, and the T/C (dose: 50.0 mg/kg/injection, schedule: Q04DX002 (ip), vehicle: saline) was 107 % of control, the T/C (dose: 100.0 mg/kg/injection, schedule: Q04DX002 (ip), vehicle: saline) was 100 % of control and the T/C (dose: 200.0 mg/kg/injection, schedule: Q04DX002 (ip), vehicle: saline) was 109 % of control.

In the case of `O=S(=O)(O)c1ccc(/C2=c3\cc/c([n-]3)=C(\c3ccc(S(=O)(=O)O)cc3)c3ccc([n-]3)/C(c3ccc(S(=O)(=O)O)cc3)=c3/cc/c([n-]3)=C(\c3ccc(S(=O)(=O)O)cc3)c3ccc2[n-]3)cc1.[Zn]`, the T/C (dose: 62.5 mg/kg/injection, schedule: Q01DX009 (ip), vehicle: saline with Tween-80) is reported as 106 % of control.

With `CC(=O)Nc1ccc(/C=C/C(=O)c2ccc(Cl)cc2)cc1` the T/C [1] was 100 % of control, the T/C [2] was 104 % of control and the T/C [3] was 100 % of control. The T/C [4] was 100 % of control, the T/C [5] was 100 % of control and the T/C [6] was 90 % of control.

With `C=C1C(=O)OC2CC(C)C3CC(=O)C(C)=C3C(O)C12` (stereo not drawn) the T/C (dose: 25.0 mg/kg/injection, schedule: Q01DX009 (ip), vehicle: Klucel (hydroxypropylcellulose) (HPC)) was 120 % of control and the T/C (dose: 50.0 mg/kg/injection, schedule: Q01DX009 (ip), vehicle: Klucel (hydroxypropylcellulose) (HPC)) was 112 % of control.

With `O=C(/C(=C\c1ccccc1)CBr)c1ccc(Br)cc1` the T/C (dose: 3.12 mg/kg/injection, schedule: Q01DX009 (ip), vehicle: saline) was 115 % of control, the T/C (dose: 6.25 mg/kg/injection, schedule: Q01DX009 (ip), vehicle: saline) was 115 % of control and the T/C [7] was 110 % of control.

In the case of `CC(C)c1ncc([N+](=O)[O-])n1C`, the T/C [1] is reported as 100 % of control, the T/C [3] is reported as 87 % of control and the T/C [5] is reported as 100 % of control.

In the case of `CC(CCCc1ccccc1)(C(=O)O)C(=O)O`, the T/C (dose: 100.0 mg/kg/injection, schedule: Q04DX002 (ip), vehicle: saline with Tween-80) is reported as 96 % of control, the T/C (dose: 200.0 mg/kg/injection, schedule: Q04DX002 (ip), vehicle: saline with Tween-80) is reported as 98 % of control and the T/C (dose: 400.0 mg/kg/injection, schedule: Q04DX002 (ip), vehicle: saline with Tween-80) is reported as 102 % of control.

With `COc1ccc(CC2=NCCc3cc(OC)c(OC)cc32)cc1OC` the T/C [7] was 153 % of control and the T/C [8] was 99 % of control.

In the case of `CC(CO)(CI)[n+]1ccccc1` (stereo not drawn), the T/C [9] is reported as 103 % of control, the T/C [10] is reported as 107 % of control and the T/C [11] is reported as 95 % of control. For the same compound, the T/C [2] was 100 % of control.

In the case of `CC(C)=CC(=O)CC(O)(C(F)(F)F)C(F)(F)Cl` (stereo not drawn), the T/C [12] is reported as 100 % of control, the T/C [11] is reported as 95 % of control and the T/C [2] is reported as 109 % of control.

For `CC(C)COC(=O)NCCF`, the T/C (dose: 6.25 mg/kg/injection, schedule: Q01DX009 (ip), vehicle: saline with Tween-80) was 107 % of control, the T/C [13] was 112 % of control and the T/C [9] was 120 % of control.

For `Clc1cc(C(Cl)(Cl)Cl)ccc1C(Cl)(Cl)Cl`, the T/C [14] was 100 % of control, the T/C [15] was 104 % of control and the T/C [16] was 95 % of control.

With `CN(CCS)Cc1ccccc1` the T/C [12] was 100 % of control, the T/C [11] was 104 % of control and the T/C [2] was 100 % of control.

With `N#CCC(=O)N1Cc2cc3ccccc3nc2C1` the T/C (dose: 50.0 mg/kg/injection, schedule: Q01DX001 (ip), vehicle: saline sonified) was 100 % of control, the T/C (dose: 100.0 mg/kg/injection, schedule: Q01DX001 (ip), vehicle: saline sonified) was 100 % of control and the T/C (dose: 200.0 mg/kg/injection, schedule: Q01DX001 (ip), vehicle: saline sonified) was 100 % of control.

With `O=c1ccccn1CC1(c2ccccc2)OCCO1` the T/C (dose: 100.0 mg/kg/injection, schedule: Q01DX009 (ip), vehicle: Klucel (hydroxypropylcellulose) (HPC)) was 95 % of control, the T/C (dose: 200.0 mg/kg/injection, schedule: Q01DX009 (ip), vehicle: Klucel (hydroxypropylcellulose) (HPC)) was 91 % of control and the T/C (dose: 400.0 mg/kg/injection, schedule: Q01DX009 (ip), vehicle: Klucel (hydroxypropylcellulose) (HPC)) was 95 % of control.

For `CC(=O)N1C(=O)N(Cl)C(=O)C1(c1ccc(Cl)cc1)c1ccc(Cl)cc1`, the T/C (dose: 60.0 mg/kg/injection, schedule: Q01DX009 (ip), vehicle: saline with Tween-80) was 116 % of control, the T/C [1] was 91 % of control and the T/C [2] was 113 % of control. For the same compound, the T/C [3] was 113 % of control, the T/C [4] was 109 % of control and the T/C [6] was 122 % of control.

With `O=Cc1[nH]c(=S)[nH]c(=O)c1Cc1ccc([N+](=O)[O-])cc1` the T/C [2] was 100 % of control, the T/C [4] was 95 % of control and the T/C [6] was 112 % of control.

With `Cc1cccc(NC(=O)c2ccccc2)n1` the T/C [13] was 91 % of control, the T/C [9] was 91 % of control and the T/C [10] was 104 % of control.

With `Cc1nnc2c(=O)[nH]ccn12` the T/C [14] was 106 % of control, the T/C [15] was 100 % of control and the T/C [16] was 103 % of control.

For `CC(C)=CC(=O)OCC1CC[N+](C)(C)C1` (stereo not drawn), the T/C [8] was 111 % of control and the T/C (dose: 50.0 mg/kg/injection, schedule: Q01DX009 (ip), vehicle: saline) was 100 % of control.

For `CN1CCC(S)(S)CC1`, the T/C (dose: 12.5 mg/kg/injection, schedule: Q04DX003 (ip), vehicle: saline with Tween-80) was 100 % of control, the T/C [12] was 100 % of control and the T/C [11] was 109 % of control.

`O=[N+]([O-])c1ccc(OCCNS(=O)(=O)c2cccc(S(=O)(=O)F)c2)c(Cl)c1` was tested, and the T/C [13] was 110 % of control, the T/C [10] was 110 % of control and the T/C [1] was 94 % of control. For the same compound, the T/C [2] was 99 % of control, the T/C [3] was 105 % of control and the T/C [4] was 99 % of control. The T/C [5] was 88 % of control and the T/C [6] was 108 % of control.

In the case of `CC1=CC=CC(C)(Cc2ccc(-c3ccc(CC4(C)C=CC=C(C)C4=O)cc3)cc2)C1=O` (stereo not drawn), the T/C (dose: 25.0 mg/kg/injection, schedule: Q01DX001 (ip), vehicle: saline with Tween-80) is reported as 95 % of control, the T/C (dose: 50.0 mg/kg/injection, schedule: Q01DX001 (ip), vehicle: saline with Tween-80) is reported as 95 % of control and the T/C [14] is reported as 90 % of control.

`COC1C(=O)CCC2(CO2)C1(O)C1(C)OC1CCC(C)C` (stereo not drawn) was tested, and the T/C (dose: 22.0 mg/kg/injection, schedule: Q01DX009 (ip), vehicle: saline with Tween-80) was 109 % of control, the T/C (dose: 44.0 mg/kg/injection, schedule: Q01DX009 (ip), vehicle: saline with Tween-80) was 109 % of control and the T/C (dose: 87.5 mg/kg/injection, schedule: Q01DX009 (ip), vehicle: saline with Tween-80) was 110 % of control and 118 % of control.
